Laboratory results: PubChem BioAssay AID1963827 (Molecular Pharmacology Branch, DTP, NCI, 2024)

Test system: 994946-033-R-J1-PDC complex spheroid viability
Experiment: Anticancer human tumor 994946-033-R-J1-PDC patient-derived melanoma cell line growth inhibition [POLQ]
Settings: for IC50: curve of first compound; for viability, T/C: stronger effect = lower value
In short: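 PDC + HUVEC + MSC complex spheroids; POLQ inhibitors ± partner drugs; top conc. at/near clinical Cmax, else 10 microM (SN-38 1 microM), half-log dilutions; 37 degrees C, 5% CO2.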

[1] = second compound 0.0316 µM, first compound 0.0316 µM
[2] = second compound 0.0316 µM, first compound 0.1 µM
[3] = second compound 0.0316 µM, first compound 0.316 µM
[4] = second compound 0.0316 µM, first compound 1 µM
[5] = second compound 0.0316 µM, first compound 3.16 µM
[6] = second compound 0.0316 µM, first compound 10 µM
[7] = second compound 0.1 µM, first compound 0.0316 µM
[8] = second compound 0.1 µM, first compound 0.1 µM
[9] = second compound 0.1 µM, first compound 0.316 µM
[10] = second compound 0.1 µM, first compound 1 µM
[11] = second compound 0.1 µM, first compound 3.16 µM
[12] = second compound 0.1 µM, first compound 10 µM
[13] = second compound 0.316 µM, first compound 0.0316 µM
[14] = second compound 0.316 µM, first compound 0.1 µM
[15] = second compound 0.316 µM, first compound 0.316 µM
[16] = second compound 0.316 µM, first compound 1 µM
[17] = second compound 0.316 µM, first compound 3.16 µM
[18] = second compound 0.316 µM, first compound 10 µM
[19] = second compound 1 µM, first compound 0.0316 µM
[20] = second compound 1 µM, first compound 0.1 µM
[21] = second compound 1 µM, first compound 0.316 µM
[22] = second compound 1 µM, first compound 1 µM
[23] = second compound 1 µM, first compound 3.16 µM
[24] = second compound 1 µM, first compound 10 µM
[25] = second compound 3.16 µM, first compound 0.0316 µM
[26] = second compound 3.16 µM, first compound 0.1 µM
[27] = second compound 3.16 µM, first compound 0.316 µM
[28] = second compound 3.16 µM, first compound 1 µM
[29] = second compound 3.16 µM, first compound 3.16 µM
[30] = second compound 3.16 µM, first compound 10 µM
[31] = second compound 10 µM, first compound 0.0316 µM
[32] = second compound 10 µM, first compound 0.1 µM
[33] = second compound 10 µM, first compound 0.316 µM
[34] = second compound 10 µM, first compound 1 µM
[35] = second compound 10 µM, first compound 3.16 µM
[36] = second compound 10 µM, first compound 10 µM
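Further: spheroids exposed to drugs for 7 days.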
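Wherever viability, T/C is given: 100% = DMSO vehicle treated spheroids.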

## CCc1cc2c(N3CCc4c(cc(Cn5ccnc5)cc4-c4cn(C)nc4C(F)(F)F)C3=O)ccnc2c(OC)n1 + Cc1cccc(N(C)C(=O)C2C(O)CCN2c2nc(C)cc(C(F)(F)F)c2C#N)c1
Second compound 0.0316 µM
  IC50: > 10 µM
Second compound 0.1 µM
  IC50: > 10 µM
Second compound 0.316 µM
  IC50: > 10 µM
Second compound 1 µM
  IC50: > 10 µM
Second compound 3.16 µM
  IC50: > 10 µM
Second compound 10 µM
  IC50: > 10 µM
[1]
  viability, T/C: 107%
[2]
  viability, T/C: 86.7%
[3]
  viability, T/C: 68.3%
[4]
  viability, T/C: 78.4%
[5]
  viability, T/C: 69.1%
[6]
  viability, T/C: 67.4%
[7]
  viability, T/C: 95.3%
[8]
  viability, T/C: 85.2%
[9]
  viability, T/C: 78.6%
[10]
  viability, T/C: 78.1%
[11]
  viability, T/C: 66.3%
[12]
  viability, T/C: 66.9%
[13]
  viability, T/C: 102%
[14]
  viability, T/C: 94.2%
[15]
  viability, T/C: 86.1%
[16]
  viability, T/C: 93.9%
[17]
  viability, T/C: 63.3%
[18]
  viability, T/C: 61.6%
[19]
  viability, T/C: 77.7%
[20]
  viability, T/C: 78.8%
[21]
  viability, T/C: 93.5%
[22]
  viability, T/C: 80.1%
[23]
  viability, T/C: 84.1%
[24]
  viability, T/C: 55.2%
[25]
  viability, T/C: 92.4%
[26]
  viability, T/C: 76.8%
[27]
  viability, T/C: 65%
[28]
  viability, T/C: 63%
[29]
  viability, T/C: 85.9%
[30]
  viability, T/C: 53.1%
[31]
  viability, T/C: 81.5%
[32]
  viability, T/C: 65.4%
[33]
  viability, T/C: 73.6%
[34]
  viability, T/C: 57.8%
[35]
  viability, T/C: 71.7%
[36]
  viability, T/C: 65.9%

## Nc1ccn(C2OC(CO)C(O)C2(F)F)c(=O)n1 (stereo unspecified) + COC1C(OC(N)=O)C(O)C(Oc2ccc3c(O)c(NC(=O)c4ccc(O)c(CC=C(C)C)c4)c(=O)oc3c2C)OC1(C)C
Second compound 0.0316 µM
  IC50: < 0.0316 µM
Second compound 0.1 µM
  IC50: < 0.0316 µM
Second compound 0.316 µM
  IC50: < 0.0316 µM
Second compound 1 µM
  IC50: < 0.0316 µM
Second compound 3.16 µM
  IC50: 0.0354 µM
Second compound 10 µM
  IC50: < 0.0316 µM
[1]
  viability, T/C: 24.4%
[2]
  viability, T/C: 9.96%
[3]
  viability, T/C: 7.61%
[4]
  viability, T/C: 7.06%
[5]
  viability, T/C: 5.98%
[6]
  viability, T/C: 1.31%
[7]
  viability, T/C: 30.7%
[8]
  viability, T/C: 9.93%
[9]
  viability, T/C: 5.26%
[10]
  viability, T/C: 7.92%
[11]
  viability, T/C: 7.09%
[12]
  viability, T/C: 2.72%
[13]
  viability, T/C: 26.8%
[14]
  viability, T/C: 7.23%
[15]
  viability, T/C: 6.54%
[16]
  viability, T/C: 6.27%
[17]
  viability, T/C: 6.01%
[18]
  viability, T/C: 3.92%
[19]
  viability, T/C: 28.8%
[20]
  viability, T/C: 4.66%
[21]
  viability, T/C: 7.79%
[22]
  viability, T/C: 8.09%
[23]
  viability, T/C: 5.28%
[24]
  viability, T/C: 2.12%
[25]
  viability, T/C: 54.6%
[26]
  viability, T/C: 7.74%
[27]
  viability, T/C: 6.32%
[28]
  viability, T/C: 6%
[29]
  viability, T/C: 4.45%
[30]
  viability, T/C: 1.73%
[31]
  viability, T/C: 19.9%
[32]
  viability, T/C: 7.37%
[33]
  viability, T/C: 6.97%
[34]
  viability, T/C: 6.33%
[35]
  viability, T/C: 4.89%
[36]
  viability, T/C: 2.82%

## CC1COCCN1c1cc(-c2ccnn2C)c2ccnc(-c3ccn[nH]3)c2n1 (stereo unspecified) + Nc1ccc(C#CCN(C(=O)Cc2ncc(C(F)(F)F)cc2C(F)(F)F)c2ccc(F)cc2)nn1
Second compound 0.0316 µM
  IC50: 0.0644 µM
Second compound 0.1 µM
  IC50: 0.0729 µM
Second compound 0.316 µM
  IC50: 0.0725 µM
Second compound 1 µM
  IC50: 0.0739 µM
Second compound 3.16 µM
  IC50: 0.062 µM
Second compound 10 µM
  IC50: 0.0806 µM
[1]
  viability, T/C: 65.8%
[2]
  viability, T/C: 41.7%
[3]
  viability, T/C: 21.8%
[4]
  viability, T/C: 29.1%
[5]
  viability, T/C: 19.8%
[6]
  viability, T/C: 15.4%
[7]
  viability, T/C: 86.3%
[8]
  viability, T/C: 31.8%
[9]
  viability, T/C: 29.6%
[10]
  viability, T/C: 26%
[11]
  viability, T/C: 16.3%
[12]
  viability, T/C: 9.84%
[13]
  viability, T/C: 70.5%
[14]
  viability, T/C: 40.5%
[15]
  viability, T/C: 26.1%
[16]
  viability, T/C: 23.6%
[17]
  viability, T/C: 17.5%
[18]
  viability, T/C: 9.71%
[19]
  viability, T/C: 75.5%
[20]
  viability, T/C: 33.7%
[21]
  viability, T/C: 32.9%
[22]
  viability, T/C: 33.6%
[23]
  viability, T/C: 15.4%
[24]
  viability, T/C: 14.1%
[25]
  viability, T/C: 60.7%
[26]
  viability, T/C: 42.4%
[27]
  viability, T/C: 22.1%
[28]
  viability, T/C: 21.1%
[29]
  viability, T/C: 25.6%
[30]
  viability, T/C: 14.1%
[31]
  viability, T/C: 76.1%
[32]
  viability, T/C: 44%
[33]
  viability, T/C: 21.1%
[34]
  viability, T/C: 21.7%
[35]
  viability, T/C: 21.6%
[36]
  viability, T/C: 15.8%
